Measured values published in the supplement of paper PMC10307832.

Experiments:
Test in all cases: relative viability (nuclei count vs DMSO), 5 days (fraction); higher = more cells survive
[1] = compound: C=CC(=O)Nc1cc(-n2c(=O)ccc3cnc4ccc(-c5ccc(NS(C)(=O)=O)cc5)cc4c32)ccc1C [BMX-IN-1] + Nc1ncn([C@H]2C[C@H](O)[C@@H](CO)O2)c(=O)n1 [Decitabine] (partner 2 µM)
Summary of the method: (§1)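 For relative viability, nuclei counts in treated wells were divided by those in vehicle wells. Lung cancer cell lines had been pin-tool dosed in 1536-well plates the day after seeding and cultured for 5 days, then fixed and stained in one step (final 0.05% Triton X-100, 1% formaldehyde, 1 ug/ml Hoechst) and imaged at 4×. Doses were one drug alone or a fixed anchor-drug dose plus five library-drug doses (not always all listed) in √10 steps, and values are duplicate-plate medians.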

[2] = compound: C=CCc1cccc(/C=N/NC(=O)CN2CCN(Cc3ccccc3)CC2)c1O [PAC-1] + COc1cc2c(Oc3ccc(NC(=O)C4(C(=O)Nc5ccc(F)cc5)CC4)cc3F)ccnc2cc1OCCCN1CCOCC1 [Foretinib] (partner 0.25 µM)
Summary of the method: as §1

[3] = compound: C=CC(=O)N1CCC[C@@H](n2nc(-c3ccc(Oc4ccccc4)cc3)c3c(N)ncnc32)C1 [Ibrutinib] + Nc1ncn([C@H]2C[C@H](O)[C@@H](CO)O2)c(=O)n1 [Decitabine] (partner 2 µM)
Summary of the method: as §1

[4] = compound: C=CC(=O)N1CCC[C@@H](n2nc(-c3ccc(Oc4ccccc4)cc3)c3c(N)ncnc32)C1 [Ibrutinib] + COc1cccc2cc(-c3nc([C@H]4CC[C@H](C(=O)O)CC4)n4ncnc(N)c34)[nH]c12 [OSI-027] (partner 0.5 µM)
Summary of the method: as §1

Row | Cell Line | relative viability ([1]; first compound 0.02 µM) | relative viability ([1]; first compound 0.2 µM) | relative viability ([1]; first compound 0.6325 µM) | relative viability ([1]; first compound 2 µM) | relative viability ([2]; first compound 0.02 µM) | relative viability ([2]; first compound 0.06325 µM) | relative viability ([2]; first compound 0.2 µM) | relative viability ([2]; first compound 2 µM) | relative viability ([3]; first compound 0.01581 µM) | relative viability ([3]; first compound 0.05 µM) | relative viability ([3]; first compound 0.1581 µM) | relative viability ([3]; first compound 0.5 µM) | relative viability ([4]; first compound 0.005 µM) | relative viability ([4]; first compound 0.01581 µM) | relative viability ([4]; first compound 0.05 µM) | relative viability ([4]; first compound 0.1581 µM) | relative viability ([4]; first compound 0.5 µM) | relative viability ([3]; first compound 0.005 µM)
1 | NCI-H1355 | 0.357 | 0.368 | 0.355 | 0.401 | 0.921 | 0.983 | 0.936 | 1.04 | 0.355 | 0.367 | 0.318 | 0.363 | 0.29 | 0.388 | 0.382 | 0.347 | 0.403 | –
2 | LK-2 | 0.262 | 0.326 | 0.269 | 0.335 | 1.11 | 1.16 | 0.858 | 1.12 | 0.244 | 0.261 | 0.217 | 0.251 | 0.151 | 0.203 | 0.203 | 0.174 | 0.212 | 0.19
3 | NCI-H1650 | 0.438 | 0.385 | 0.473 | 0.548 | 0.892 | 1.31 | 1.22 | 0.732 | 0.379 | 0.512 | 0.402 | 0.444 | 0.554 | 0.506 | 0.452 | 0.59 | 0.482 | 0.41
4 | NCI-H838 | 0.5 | 0.439 | 0.466 | 0.444 | 1.06 | 0.953 | 1.01 | 1.06 | 0.466 | 0.497 | 0.476 | 0.451 | 0.36 | 0.405 | 0.387 | 0.399 | 0.481 | 0.552
5 | EMC-BAC-2 | 0.95 | 0.993 | 1.1 | 1.03 | 0.999 | 1.04 | 0.936 | 0.996 | 0.962 | – | – | 0.994 | 0.33 | 0.352 | 0.403 | 0.426 | 0.405 | 0.91
6 | SW 1573 | 0.575 | 0.532 | 0.46 | 0.459 | 0.828 | 0.741 | 0.912 | 0.979 | 0.459 | 0.482 | 0.412 | 0.683 | 0.436 | 0.517 | 0.653 | 0.704 | 0.651 | 0.364
7 | CAL-12T | – | – | – | – | 1.15 | 1.1 | 0.978 | 1.08 | – | – | – | – | 0.369 | 0.579 | 0.601 | 0.569 | 0.562 | –
8 | NCI-H2009 | 0.381 | 0.402 | 0.41 | 0.368 | 1.2 | 1.23 | 1.21 | 1.19 | 0.373 | 0.372 | 0.46 | 0.415 | 0.522 | 0.631 | 0.585 | 0.729 | 0.804 | 0.375
9 | HARA | 0.752 | 0.575 | 0.664 | 0.704 | 0.675 | 0.833 | 0.863 | 0.918 | 0.486 | 0.376 | 0.468 | 0.264 | 0.303 | 0.437 | 0.297 | 0.38 | 0.247 | 0.5
10 | HCC-827 | 0.27 | 0.31 | 0.342 | 0.292 | 1.11 | 1.03 | 0.964 | 1.03 | 0.345 | 0.262 | 0.287 | 0.195 | 0.727 | 0.67 | 0.648 | 0.783 | 0.45 | 0.275
11 | EBC-1 | – | – | – | – | 0.105 | 0.0969 | 0.139 | 0.121 | – | – | – | – | – | – | – | – | – | –
12 | NCI-H647 | 0.407 | 0.502 | 0.479 | 0.462 | 1.17 | 1.08 | 1.29 | 1.31 | 0.331 | 0.411 | 0.244 | 0.409 | – | 0.542 | 0.671 | 0.841 | 0.812 | 0.341
13 | A549 | 0.289 | 0.115 | 0.284 | 0.293 | 0.952 | 0.964 | 1.04 | 1.01 | 0.243 | 0.311 | 0.225 | 0.186 | – | – | – | – | – | 0.249
14 | NCI-H661 | 0.617 | 0.528 | 0.634 | 0.525 | 1.05 | 0.963 | 0.967 | 0.957 | 0.489 | 0.428 | 0.471 | 0.381 | 0.702 | 0.674 | 0.476 | 0.698 | 0.423 | 0.498
15 | NCI-H1651 | 0.5 | 0.667 | 0.722 | 0.593 | 0.796 | 0.72 | 0.735 | 0.917 | 0.693 | 0.56 | 0.465 | 0.53 | 0.624 | 0.663 | 0.792 | 0.685 | 0.768 | 0.426
16 | HCC-78 | 0.743 | 0.766 | 0.789 | 0.802 | 0.522 | 0.591 | 0.634 | 0.589 | 0.824 | 0.677 | 0.543 | 0.702 | 0.309 | 0.362 | 0.36 | 0.355 | 0.308 | –
17 | NCI-H2085 | 0.553 | 0.595 | 0.564 | 0.597 | 0.815 | 0.932 | 0.998 | 1.07 | 0.56 | 0.588 | – | 0.568 | 0.502 | 0.627 | 0.663 | 0.556 | 0.562 | 0.57
18 | NCI-H2228 | – | – | – | – | 0.903 | 0.862 | 0.888 | 0.786 | – | – | – | – | 0.511 | – | 0.478 | 0.481 | 0.509 | –
19 | LU99A | 0.922 | 0.855 | 1.13 | 0.882 | 0.91 | 0.854 | 0.818 | 0.774 | 0.796 | 0.947 | 0.937 | 0.874 | 0.245 | 0.254 | 0.323 | 0.32 | 0.288 | 0.857
20 | NCI-H522 | 0.692 | 0.633 | 0.725 | 0.624 | – | – | – | – | 0.588 | 0.677 | 0.626 | 0.637 | 0.656 | 0.693 | 0.692 | 0.597 | 0.648 | 0.64
